Where two headings read alike, the source gives them in different places.
Tests used:
tremor in mice = experiment: Induction of tremor in mice; settings: sc
[1] = molecular target: M2-receptor of rat cerebellum (Rattus norvegicus, UniProt P10980); experiment: biochemical; format: binding
[2] = molecular target: T1, M1-receptor of rat cerebral cortex (Rattus norvegicus, UniProt P08482); experiment: Affinity for muscarinic receptor: [3H]pirenzepine binding to M1-receptor of rat cerebral cortex
T1 construct: M1 -receptor of rat cerebral cortex; from tissue; host or cells: rat cerebral cortex (membranes of rat brain)
T1 sequence (P08482 1-460): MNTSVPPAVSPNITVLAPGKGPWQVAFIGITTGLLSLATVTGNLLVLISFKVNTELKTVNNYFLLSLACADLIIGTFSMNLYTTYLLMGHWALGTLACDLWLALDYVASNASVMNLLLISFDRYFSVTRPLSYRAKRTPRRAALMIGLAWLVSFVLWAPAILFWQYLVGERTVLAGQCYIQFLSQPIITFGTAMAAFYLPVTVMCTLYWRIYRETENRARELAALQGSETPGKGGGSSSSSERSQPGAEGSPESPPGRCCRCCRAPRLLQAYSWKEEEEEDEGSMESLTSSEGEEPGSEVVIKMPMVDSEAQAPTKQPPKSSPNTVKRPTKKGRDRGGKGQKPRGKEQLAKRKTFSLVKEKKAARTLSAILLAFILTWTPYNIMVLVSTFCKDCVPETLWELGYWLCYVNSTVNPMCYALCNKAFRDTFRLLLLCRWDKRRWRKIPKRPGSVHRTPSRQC

Chain of M2-receptor of rat cerebellum (P10980 whole entry): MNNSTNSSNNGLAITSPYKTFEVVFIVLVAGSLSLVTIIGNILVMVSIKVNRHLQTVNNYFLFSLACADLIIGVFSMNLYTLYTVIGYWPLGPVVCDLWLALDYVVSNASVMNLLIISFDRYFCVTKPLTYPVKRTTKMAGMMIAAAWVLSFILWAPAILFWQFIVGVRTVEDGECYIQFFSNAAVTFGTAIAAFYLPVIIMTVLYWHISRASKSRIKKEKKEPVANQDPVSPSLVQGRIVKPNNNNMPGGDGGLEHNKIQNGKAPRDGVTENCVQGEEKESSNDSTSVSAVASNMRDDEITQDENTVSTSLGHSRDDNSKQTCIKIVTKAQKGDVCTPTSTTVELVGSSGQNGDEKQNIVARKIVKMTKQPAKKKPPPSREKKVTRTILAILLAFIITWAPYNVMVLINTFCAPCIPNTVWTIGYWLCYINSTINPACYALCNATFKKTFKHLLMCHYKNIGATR

In the case of C=C1CC2(CCN(C)CC2)OC1CC (centres unmarked) [Example 36, 2-Ethyl-8-methyl-3-methylene-1-oxa-8-azaspiro[4.5]decane], the “Dose, the effect of the above 2) (minimum effective dose for causing tremor)” value (shortened to “Dose, the effect”) (tremor in mice) is reported as greater than 30 mg/kg, the IC50 [1] is reported as 8960 nM and the IC50 ([2]; [3H]pirenzepine, M1-receptor, rat cerebral cortex, read-out: Receptor-affinity IC50, Pirenzepine binding) is reported as 1260 nM.
With CCC1OC2(CCN(C)CC2)CC1=O (centres unmarked) [Example 15, 2-ethyl-8-methyl-1-oxa-8-azaspiro[4.5]decan-3-one] the “Dose, the effect” value (tremor in mice) was greater than 30 mg/kg.
With O=C1CCCN1CC#CCN1CCCC1 [Oxotremorine, reference compound] the “Dose, the effect” value (tremor in mice) was 0.2 mg/kg, the IC50 [1] was 4.9 nM and the IC50 [2] was 68 nM.
With COC(=O)C1=CCCN(C)C1 [Arecoline, reference compound] the “Dose, the effect” value (tremor in mice) was 5 mg/kg.
For CC1OC2(CN3CCC2CC3)CC12SCCS2 (single isomer, unassigned) [Example 33, 5'-Methyl-dispiro[1-azabicyclo[2.2.2]octane-3,2'-oxolane-4',2"-[1.3]dithiolane]], the “Dose, the effect” value (tremor in mice) was greater than 30 mg/kg, the IC50 [1] was 310 nM and the IC50 [2] was 17 nM.
C=C1CC2(CCN(C)CC2)OC1C (centres unmarked) [Example 5, 2,8-dimethyl-3-methylene-1-oxa-8-azaspiro[4,5]decane] was tested, and the “Dose, the effect” value (tremor in mice) was greater than 30 mg/kg, the IC50 [1] was 25100 nM and the IC50 [2] was 3320 nM.
CCC1OC2(CCN(C)CC2)CC12OCCS2 (centres unmarked) [Example 29, 14-ethyl-10-methyl-1,13-dioxa-4-thia-10-azadispiro[4.1.5.2]tetradecane] was tested, and the “Dose, the effect” value (tremor in mice) was greater than 30 mg/kg, the IC50 [1] was 640 nM and the IC50 [2] was 49 nM.
For CC1SC2(CCN(C)CC2)CC12SCCS2 (centres unmarked) [Example 22, 10,14-Dimethyl-1,4,13-trithia-10-azadispiro[4.1.5.2]tetradecane], the “Dose, the effect” value (tremor in mice) was greater than 30 mg/kg, the IC50 [1] was 710 nM and the IC50 [2] was 39 nM.

Source: patent US5041549A, “Heterocyclic spiro compounds and methods for preparing the same” (Yamanouchi Pharmaceutical Co., Ltd., priority 1987, dated 1991)
